Laboratory results as given in US9540299B2, “MTOR-independent activator of TFEB for autophagy enhancement and uses thereof” (Hong Kong Baptist University, priority 2015, dated 2017).

Legend:
[1] = tested on: N2a cells; assay: Lysosomal markers LAMP1 and CTSD by western blot in N2a cells; assay type: cell-based, mouse; conditions: 12 hours
Experimental: N2a cells are treated with different concentrations (0-1 μM) of E4 for 12 hours. Torin 1 (1 μM) is used as a positive control. The expression of LAMP1, pro-CTSD and mature CTSD (M-CTSD) are determined by western blotting (FIG. 25A) and quantified (FIG. 25B). Quantification data are presented as the mean±SD from three independent experiments. *p<0.05, **p<0.01 vs. the control (0.1% DMSO).
After transiently knockdown the expression of TFEB, N2a cells are treated with E4 (1 μM) for 12 hours, the expression of LAMP1, Pro-CTSD and mature CTSD (M-CTSD) are detected by Western blotting (FIG. 29A). Quantification data are presented as the mean±SD from three independent experiments FIG. 29B. **p<0.01 vs. the control (0.1% DMSO).
N2a and HeLa cells are cultured in DMEM supplemented with 10% FBS. HeLa cells stably expressing 3×-Flag-TFEB are maintained in DMEM supplemented with 10% FBS and 500 μg/mL G418. For drug treatment, the full medium is replaced by fresh Opti-MEM I containing the compounds (in 0.1% DMSO) and incubated for the indicated time periods.
N2a cells are transfected with mouse Tfeb siRNA and the non-target siRNA using Lipofectamine RNAiMAX (13778030, Invitrogen) and incubated at 37° C. for 72 hours.
Cells are lysed on ice in 1× Lysis Buffer (9803, Life Technologies) with complete protease inhibitor mixture (04693124001, Roche Applied Science) and phosphatase inhibitor (B15001, Biotool). Cytosolic and nuclear fractions are isolated using protocols similar to those described previously. Proteins are separated by 10-15% SDS-PAGE, transferred, and blotted with the antibodies described. The blots are then incubated with primary and secondary antibodies. The protein signals are detected by the ECL kit (32106, Pierce) and quantified using ImageJ software.

[2] = tested on: SH-SY5Y cells; assay: Real-time PCR of autophagy and lysosome genes in SH-SY5Y cells; assay type: cell-based, human; conditions: 1 μM, 12 h
Experimental: (§1) Various gene expressions in Hela cells (FIG. 7A) and SH-SY5Y cells (FIG. 7B) after treated with C1 (1 μM) for 12 h. mRNA transcript abundance is assessed by real-time PCR using specific primers for the indicated genes. Relative quantification (RQ) is presented as means±SD of three independent experiments. FIG. 7C is western blot showing the protein levels of autophagy marker (LC3-II), TFEB and lysosome markers (LAMP1, CTSD) in Hela and SH-SY5Y cells having treated with C1 (0.5, 1 μM) or sucrose (100 mM) for 12 h. The relative intensity of autophagy marker (LC3-II), TFEB and lysosome markers (LAMP1, CTSD) normalized to that of ACTB/β-actin in Hela cells (FIG. 7D) and SH-SY5Y cells (FIG. 7E). Data are presented as the mean±SD from three independent experiments. *p<0.05 vs. the control (0.1% DMSO). […] Autophagy-enhancing effect of C1 is TFEB-dependent. Data are presented as the mean±SD from three independent experiments. *p<0.05 vs. the control. N. S.=not significant.
Total RNA is extracted from cells and tissues using RNeasy Plus Mini Kit (74134, Qiagen). Reverse transcription is performed using High-Capacity cDNA Reverse Transcription Kit (4368814, Life Technologies). […] Fold changes are calculated using the ΔΔCT method and the results were normalized against an internal control (GAPDH or ACTB).

[3] = tested on: SH-SY5Y cells; assay: Western blot of TFEB, LC3-II, LAMP1, CTSD in SH-SY5Y cells; assay type: cell-based, human; conditions: SH-SY5Y cells, 0.5, 1 μM, 12 h
Experimental: as §1
N2a, Hela and Hela cells stably expressing 3×-Flag-TFEB are cultured in DMEM supplemented with 10% FBS. SH-SY5Y cells are cultured in DMEM/F12 supplemented with 10% FBS. […]
Cells are lysed on ice in 1× Lysis Buffer (9803, Life Technologies) with complete protease inhibitor mixture (04693124001, Roche Applied Science). […] The protein signals are detected by ECL kit (32106, Pierce) and quantified using ImageJ software.

Question: `O=C(/C=C/c1ccccc1I)/C=C/c1ccccc1I` [E4] was tested. Which “levels of Pro-CTSD and mature CTSD (M-CTSD)” value ([1]; 0-1 μM, dose-dependent manner) did it give?
Answer: increases

Question: What about the “levels of the lysosomal marker LAMP1” value ([1]; 0-1 μM, dose-dependent manner) of the same compound?
Answer: significantly increases

Question: And the “LAMP1, pro-CTSD and CTSD levels in control (non-target siRNA) cells” value ([1]; 1 μM)?
Answer: significantly increases

Question: What does the source list for `COc1ccccc1/C=C/C(=O)/C=C/c1ccccc1OC` [C1, 1,5-bis(2-methoxyphenyl)penta-1,4-dien-3-one]?
Answer: mRNA of TFEB and genes involved in autophagy and lysosome biogenesis [2]: up-regulated; autophagy/lysosomal biogenesis (LC3-II, LAMP1, CTSD protein levels) [3]: activated; protein levels of TFEB [3]: increased
